{
  "source": "patent US20260101901A1",
  "about": "“DELAYING BLOOM IN HORTICULTURAL CROPS USING JASMONIC ACID BIOSYNTHESIS INHIBITORS” (VIRGINIA TECH INTELLECTUAL PROPERTIES INC., priority 2022, published 2026)",
  "key": {"[1]": {"system": "‘Sunhigh’ peach", "test": "Exp. 5 (2023) field trial: propyl gallate and antipyrine, flowering time", "format": "in vivo", "settings": "antipyrine 50 mM, propyl gallate 15 mM, four weekly applications from swollen bud stage", "description": "(§1) In this study, we investigated the influence of propyl gallate and Antipyrine on the flowering time of ‘Redhaven’ and ‘Sunhigh’ cultivars. Three adjacent trees were randomly chosen, each as a replicate, and subjected to treatments: propyl gallate (15 mM), antipyrine (50 mM), and an untreated control. Four applications of each treatment were administered weekly, commencing at the swollen bud stage, which are concurrent at 2059, 2167, 2356, and 3128 DGH, respectively, employing a hand sprayer with the volume of 2.5 L per tree. Regulaid, a non-ionic surfactant from Kalo Inc. (Overland Park, KS, United States) was mixed with all treatments and experiments at the rate of 250 ppm.\n(§2) At the pink-bud stage, three-four branches from each treated and untreated (control) tree were randomly selected across the tree and flagged using colored ribbons. […] The progression of flower opening was recorded by periodically counting the number of open blossoms in each experiment. The number of open flowers (anthers visible) was counted every 1-3 days until all buds reached the full bloom stage (50% of flowers are fully open). The blooming rate at each time point was calculated as the ratio of open blossoms to the initial bud number per tree, and the flowering date (F50) for each treatment was determined when the blooming rate reached 50%. […]"}, "[2]": {"system": "‘Redhaven’ peach", "format": "in vivo", "settings": "antipyrine 50 mM, propyl gallate 15 mM, four weekly applications from swollen bud stage", "description": "as §1, §2"}, "[3]": {"system": "‘John Boy’ peach trees", "test": "Exp. 4 (2022) field trial: late DIECA application at 2000 GDH, bloom time and fruit set", "format": "in vivo", "settings": "DIECA 50 mM at 2000 GDH", "description": "(§3) The field trials were taken place at the Alson H. Smith Jr. Agricultural Research and Extension Center (AREC), Winchester, VA, the United States (39°06′36.0′N 78°16′48.0′W). Experiments were conducted over two growing seasons (2021 and 2022) on 3-year-old ‘John Boy’ and 10-year-old ‘Redhaven’ peach trees; both are grafted on ‘Lovell’ rootstock.\n(§4) Chilling and heat accumulation were computed from meteorological data obtained from each orchard. Data loggers (EasyLog, Lascar) were kept in enclosed wooden shelters 1.2 m above the ground and recorded temperatures at 10 min intervals. Chilling requirements were calculated using the chilling hours (CH) model (Weinberger, 1950), in which each hourly temperatures within the range of 0-7.2° C. were registered as 1 CH, and temperatures outside of this range were not considered. Starting at 500 CH, three one-year-old branches, each with at least 10 floral buds, were collected weekly from each treatment. […]\n(§5) After completion of CR, heat requirements were recorded according to the growing degree hours (GDH) model proposed by Richardson et al. (1975). […] Heat requirements (HR) were calculated as the GDH accumulated from the date of endodormancy release (under growth chambers conditions) to the date 50% of buds were in full bloom, F50 (under field conditions). […]"}, "[4]": {"system": "ginseng, wheat and tea plant (Camellia sinensis)", "settings": "DIECA application; cited from earlier work"}, "[5]": {"system": "‘John Boy’ peach trees", "test": "Exp. 1 (2021) field trial: DIECA concentrations sprayed at 1000 GDH, bloom time, fruit set and size", "format": "in vivo", "design": "Delay of the flowering date (F50) vs control: dose or concentration left out as unconfirmed"}, "[6]": {"system": "‘Redhaven’ peach trees", "test": "Exp. 2 (2021) field trial: DIECA application timing, bloom time", "format": "in vivo", "settings": "DIECA 10 mM applied at 1000 GDH", "description": "as §3, §4, §5"}, "[7]": {"system": "‘John Boy’ peach trees", "test": "Exp. 1 (2021) field trial: DIECA concentrations sprayed at 1000 GDH, bloom time, fruit set and size", "format": "in vivo", "settings": "for Heat requirements / Flowering (F50) date / Days from endodormancy release to flowering (F50): sprayed at 1000 GDH, ‘John Boy’ 2021; for Flowering (F50) date: control 06 April; for Days from endodormancy release to flowering (F50): control 69 b", "description": "as §3\n(§6) Chilling and heat accumulation were computed from meteorological data obtained from each orchard. Data loggers (EasyLog, Lascar) were kept in enclosed wooden shelters 1.2 m above the ground and recorded temperatures at 10 min intervals. Chilling requirements were calculated using the chilling hours (CH) model (Weinberger, 1950), in which each hourly temperatures within the range of 0-7.2° C. were registered as 1 CH, and temperatures outside of this range were not considered. Starting at 500 CH, three one-year-old branches, each with at least 10 floral buds, were collected weekly from each treatment. After removal of the terminal buds, the branches were placed in a beaker containing a floral solution prepared with Floralife (Smithers-Oasis Co., Walterboro, SC, USA). The floral solution was replaced weekly and around 1 cm was trimmed from the basal end of each branch to eliminate potential infections. The branches were kept in a growth chamber with conditions favoring bud growth (photoperiod with fluorescent lamps at 135 μmol·m^−2·s^−1 of 16 h at 25° C., a dark period of 8 h at 20° C., and a constant relative humidity of 65%). The endodormancy release and CRs were considered fulfilled when 50% of the buds have reached the calyx green stage after 14 days in the growth chamber.\n(§7) After completion of CR, heat requirements were recorded according to the growing degree hours (GDH) model proposed by Richardson et al. (1975). In this model, hourly temperatures less than 4.5° C. registered no GDH; temperatures in the interval of 4.5-25° C. were adjusted by subtracting 4.5° C., and temperatures greater than 25° C. were registered as 20.5 (25-4.5) GDH. Heat requirements (HR) were calculated as the GDH accumulated from the date of endodormancy release (under growth chambers conditions) to the date 50% of buds were in full bloom, F50 (under field conditions).\nThis trial was conducted on ‘John Boy’ peach trees. Three different concentrations (0.5 mM, 10 mM, and 25 mM) of DIECA (Sigma-Aldrich Co., St Louis, MO, USA) were sprayed on three groups of trees, each group is composed of three adjacent trees. Treatments and control (untreated) trees were arranged in a completely randomized design (CRD). At least one buffer tree was assigned between each treatment to avoid spray drift. Trees were sprayed on 3 Mar. 2021 at 1000 GDH at a spray volume of 0.3 L per tree, using a hand sprayer. Regulaid (250 ppm), a non-ionic surfactant from Kalo Inc. (Overland Park, KS, United States) was mixed with all treatments and experiments at the rate of 250 ppm.\n(§8) At the pink-bud stage, three-four branches from each treated and untreated (control) tree were randomly selected across the tree and flagged using colored ribbons. The number of buds on selected branches (at least 80 bud/tree) was used as the initial bud count. The progression of flower opening was recorded by periodically counting the number of open blossoms in each experiment. The number of open flowers (anthers visible) was counted every 1-3 days until all buds reached the full bloom stage (50% of flowers are fully open). The blooming rate at each time point was calculated as the ratio of open blossoms to the initial bud number per tree, and the flowering date (F50) for each treatment was determined when the blooming rate reached 50%. The numbers of fruit on the marked branches were counted 2 and 4 and 8 weeks after full bloom. Percent fruit set was calculated as the number of fruits divided by the number of flowers times 100."}, "[8]": {"system": "‘Redhaven’ peach trees", "test": "Exp. 3 (2022) field trial: DIECA concentrations sprayed at 500 GDH, bloom time and fruit set", "format": "in vivo", "settings": "for Heat requirements / Flowering (F50) date / Days from endodormancy release to flowering (F50): sprayed at 500 GDH, ‘Redhaven’ 2022; for Flowering (F50) date: control 01 April; for Days from endodormancy release to flowering (F50): control 72 c", "description": "as §3, §6, §7\nIn this trial, we used peach ‘Redhaven’ trees to examine the effects of three different concentrations (12.5, 25 and 50 mM) of DIECA on blooming time. Three adjacent trees were assigned for each treatment. All treated and untreated (control) trees were distributed in the orchard according to the CRD experimental design. DIECA treatments were applied at 500 GDH at a spray volume of 1.8 L per tree, using a high-pressure tree sprayer.\nas §8"}, "[9]": {"system": "peach and other stone fruits", "settings": "cited from earlier work"}},
  "data": [
    {"compound": "Cc1cc(=O)n(-c2ccccc2)n1C", "note": "[Antipyrine, antipyrine]", "values": [
      {"measurement": "Bloom delay compared to the control", "setting": "[1]", "result": "four"},
      {"measurement": "Bloom delay compared to the control", "setting": "[2]", "result": "two"}
    ]},
    {"compound": "CCN(CC)C(=S)[S-].[Na+]", "note": "[DIECA, sodium diethyldithiocarbamate]", "values": [
      {"measurement": "Flowering time vs control", "setting": "[3]", "result": "No significant differences"},
      {"measurement": "JA levels", "setting": "[4]", "result": "substantially reduce JA levels"},
      {"measurement": "Delay of the flowering date (F50) vs control", "setting": "[5]; DIECA, 1000 GDH, ‘John Boy’", "result": "three"},
      {"measurement": "Bloom progression compared to the control", "setting": "[6]", "result": "slightly delayed bloom progression"},
      {"measurement": "Bloom-delaying effect", "setting": "[6]; 2000 GDH or 1000+2000 GDH", "result": "None of the DIECA application timings showed a significant bloom-delaying effect"},
      {"measurement": "Heat requirements", "setting": "[7]; DIECA 0.5 mM", "result": 5373, "unit": "GDH"},
      {"measurement": "Flowering (F50) date", "setting": "[7]; DIECA 0.5 mM", "result": "06", "unit": "April"},
      {"measurement": "Days from endodormancy release to flowering (F50)", "setting": "[7]; DIECA 0.5 mM", "result": 69, "unit": "b days"},
      {"measurement": "Heat requirements", "setting": "[7]; DIECA 10 mM", "result": 5539, "unit": "GDH"},
      {"measurement": "Flowering (F50) date", "setting": "[7]; DIECA 10 mM", "result": "07", "unit": "April"},
      {"measurement": "Days from endodormancy release to flowering (F50)", "setting": "[7]; DIECA 10 mM", "result": 70, "unit": "b days"},
      {"measurement": "Delay in the blooming", "setting": "[7]; DIECA 25 mM (highest concentration), 1000 GDH, ‘John Boy’", "result": "significant delay in the blooming"},
      {"measurement": "Heat requirements", "setting": "[7]; DIECA 25 mM", "result": 6048, "unit": "GDH"},
      {"measurement": "Flowering (F50) date", "setting": "[7]; DIECA 25 mM", "result": "08", "unit": "April"},
      {"measurement": "Days from endodormancy release to flowering (F50)", "setting": "[7]; DIECA 25 mM", "result": 72, "unit": "a days"},
      {"measurement": "Heat requirements", "setting": "[8]; DIECA 12.5 mM", "result": 6090, "unit": "GDH"},
      {"measurement": "Flowering (F50) date", "setting": "[8]; DIECA 12.5 mM", "result": "04", "unit": "April"},
      {"measurement": "Days from endodormancy release to flowering (F50)", "setting": "[8]; DIECA 12.5 mM", "result": 75, "unit": "bc days"},
      {"measurement": "Delay in bloom time compared to the untreated control", "setting": "[8]; DIECA 25 mM at 500 GDH", "result": 3, "unit": "days"},
      {"measurement": "Heat requirements", "setting": "[8]; DIECA 25 mM", "result": 6090, "unit": "GDH"},
      {"measurement": "Flowering (F50) date", "setting": "[8]; DIECA 25 mM", "result": "04", "unit": "April"},
      {"measurement": "Days from endodormancy release to flowering (F50)", "setting": "[8]; DIECA 25 mM", "result": 75, "unit": "b days"},
      {"measurement": "Delay in bloom time compared to the untreated control", "setting": "[8]; DIECA 50 mM at 500 GDH", "result": 6, "unit": "days"},
      {"measurement": "Heat requirements", "setting": "[8]; DIECA 50 mM", "result": 6478, "unit": "GDH"},
      {"measurement": "Flowering (F50) date", "setting": "[8]; DIECA 50 mM", "result": "07", "unit": "April"},
      {"measurement": "Days from endodormancy release to flowering (F50)", "setting": "[8]; DIECA 50 mM", "result": 78, "unit": "a days"},
      {"measurement": "Bloom delay", "setting": "[8]; all DIECA applications (12.5, 25, 50 mM) at 500 GDH", "result": "remarkable bloom delay"},
      {"measurement": "Bloom delay in peach", "setting": "[8]; high DIECA concentrations (>25 mM) at early ecodormancy (~500 GDH)", "result": "3 to 6", "unit": "days"}
    ]},
    {"compound": "CCN(CC)C(=S)[S][Na]", "note": "[DIECA, sodium diethyldithiocarbamate]", "values": [
      {"measurement": "Fruit set (%) vs control", "setting": "[3]; 2 and 4 WAFB", "result": "no significant differences"},
      {"measurement": "Fruit set (%) vs control", "setting": "[5]; DIECA 0.5, 10, 25 mM, 3 and 6 WAFB", "result": "No significant differences"},
      {"measurement": "Fruit size vs control", "setting": "[7]; DIECA 0.5, 10, 25 mM, 6 WAFB", "result": "No significant differences"},
      {"measurement": "Fruit set (%) vs control", "setting": "[8]; DIECA 12.5, 25, 50 mM at 500 GDH, 2 and 4 WAFB", "result": "did not show significant differences"}
    ]},
    {"compound": "O=P(O)(O)CCCl", "note": "[ET, 2-chloroethylphosphonic acid]", "values": [
      {"measurement": "Detrimental effects", "setting": "[9]; high concentration application", "result": "gummosis, abortion of floral buds and dieback of the branches"},
      {"measurement": "Bloom delay", "setting": "[9]; high concentration, applied in the fall", "result": "more than two weeks"}
    ]},
    {"compound": "CCCOC(=O)c1cc(O)c(O)c(O)c1", "note": "[propyl gallate, n-propyl gallate]", "values": [
      {"measurement": "Bloom delay compared to the control", "setting": "[1]", "result": "single"},
      {"measurement": "Bloom delay compared to the control", "setting": "[2]", "result": "no significant impact"}
    ]}
  ]
}
